The values below come from publication PMC11844072, “Novel 5,6-dichlorobenzimidazole derivatives as dual BRAFWT and BRAFV600E inhibitors: design, synthesis, anti-cancer activity and molecular dynamics simulations” (BMC Chemistry, 2025).

Assay in all cases: NCI 60 single concentration growth inhibition
Common to all, as to type: cell-based, human

Assay [1] has as its system MALME-3M. The following applies: Melanoma, 10 μM. In short, it runs like this:
(§1)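 Growth measured by sulforhodamine B protein staining (515 nm) after 48 h drug exposure at 37 °C, following 24 h plating in RPMI 1640 with 5% FBS and 2 mM L-glutamine. Compounds first tested at one 10 µM dose, then five-dose series (10-fold or ½ log steps); percent growth relative to time-zero and untreated wells.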

Assay [2] deals with UO-31. As to conditions: UO-31, Renal cancer, 10 μM. In short, it runs like this: as §1
Assay [3] concerns COLO 205. The following applies: COLO 205, Colon cancer; for GI%: 10 μM; for inhibition at 10 µM: Homo sapiens, read-out: GI%. The procedure, abridged:
as §1

The subject of assay [4] is HCC-2998. As to conditions: HCC-2998, Colon cancer; for GI%: 10 μM; for inhibition at 10 µM: Homo sapiens, read-out: GI%. The procedure, abridged: as §1
Assay [5] relates to HCT-15. As to conditions: HCT-15, Colon cancer; for GI%: 10 μM; for inhibition at 10 µM: Homo sapiens, read-out: GI%. In short, it runs like this: as §1
The test system of assay [6] is IGROV1. The following applies: IGROV1, Ovarian cancer, 10 μM. In short, it runs like this:
as §1

The subject of assay [7] is K-562. The following applies: for GI%: K-562, Leukemia, 10 μM; for inhibition at 10 µM: Homo sapiens, K562, K-562, Leukemia, read-out: GI%. In short, it runs like this: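 One-concentration growth inhibition used 10 µM over 48 h in RPMI 1640/5% FBS, with sulforhodamine B protein staining as the end point. Percent growth is expressed relative to untreated control cells.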

The test system of assay [8] is LOX IMVIL. As to conditions: Melanoma; for GI%: 10 μM; for inhibition at 10 µM: Homo sapiens, read-out: GI%. The procedure, abridged: as §1
For assay [9], the system named is NCI-H322M. The following applies: Non-small cell lung cancer, 10 μM. In short, it runs like this:
as §1

Assay [10] has as its system NCI-H522. As to conditions: NCI-H522, Non-small cell lung cancer; for GI%: 10 μM; for inhibition at 10 µM: Homo sapiens, read-out: GI%. In short, it runs like this: as §1
Assay [11] concerns NCI/ADR-RES. As to conditions: Ovarian cancer; for GI%: 10 μM; for inhibition at 10 µM: Homo sapiens, read-out: GI%. The procedure, abridged: as §1
The test system of assay [12] is SNB-75. The following applies: SNB-75, CNS cancer, 10 μM. In short, it runs like this: as §1
The test system of assay [13] is SW-620. The following applies: SW-620, Colon cancer; for GI%: 10 μM; for inhibition at 10 µM: Homo sapiens, read-out: GI%. The procedure, abridged: as §1
Assay [14] relates to U251. The following applies: for GI%: U251, CNS cancer, 10 μM; for inhibition at 10 µM: Homo sapiens, U-251, U251, CNS cancer, read-out: GI%. In short, it runs like this:
as §1

A value given as a limit tells only on which side of the number the result lay.

As for “2-(4-((2-(2-(5,6-Dichloro-2-(4-methoxyphenyl)-1H-benzo[d]imidazol-1-yl)acetyl)hydrazono)methyl) -2-methoxyphenoxy)acetic acid [Compound 10m]”, the GI% result in [1] is “– (GI% < 5%)”; in assay [2], 8.63%; in [3], “– (GI% < 5%)”; in assay [4], “– (GI% < 5%)”; in assay [5] it was “– (GI% < 5%)”; in [6], “– (GI% < 5%)”. For the same molecule, the GI% entry in assay [7] was “– (GI% < 5%)”; in [8] it was “– (GI% < 5%)”; in [9], “– (GI% < 5%)”; in assay [10], 6.07%; in assay [11], “– (GI% < 5%)”; in assay [12] it was “– (GI% < 5%)”. The GI% result in assay [13] and in [14] was “– (GI% < 5%)” in each case.

For “2-(5-((2-(2-(5,6-Dichloro-2-(4-methoxyphenyl)-1H-benzo[d]imidazol-1-yl)acetyl)hydrazono)methyl)-2-methoxyphenoxy)acetic acid [Compound 10n]”, the GI% result in assay [1] is on record as “– (GI% < 5%)”; in [2] it was 13.00%; in assay [3], “– (GI% < 5%)”; in assay [4], “– (GI% < 5%)”; in assay [5], “– (GI% < 5%)”; in [6], “– (GI% < 5%)”. Moreover, the GI% entry was “– (GI% < 5%)” in assay [7]; 10.35% in assay [8]; “– (GI% < 5%)” in assay [9]; 8.04% in assay [10]; “– (GI% < 5%)” in [11]; “– (GI% < 5%)” in [12]. For the same molecule, the GI% entry in assay [13] and in [14] was “– (GI% < 5%)” throughout.

Regarding “3-(4-((2-(2-(5,6-Dichloro-2-(4-methoxyphenyl)-1H-benzo[d]imidazol-1-yl)acetyl)hydrazono)methyl)phenoxy)propanoic acid [Compound 10i]”, the GI% entry is reported as “– (GI% < 5%)” in [1]; 25.68% in assay [2]; “– (GI% < 5%)” in [3]; “– (GI% < 5%)” in assay [4]; 21.36% in assay [5]; “– (GI% < 5%)” in [6]. In addition, the GI% in assay [7] is 10.25%; in [8] it was 10.92%; in assay [9], “– (GI% < 5%)”; in assay [10], 10.42%; in assay [11], “– (GI% < 5%)”; in assay [12] it was 8.33%. Besides, the GI% entry is on record as “– (GI% < 5%)” in [13] and 7.22% in assay [14].

Take `COc1ccc(-c2nc3cc(Cl)c(Cl)cc3n2CC(=O)NN=Cc2cccc(O)c2)cc1` [Compound 10a, 2-(5,6-Dichloro-2-(4-methoxyphenyl)-1H-benzo[d]imidazol-1-yl)-N'-(3-hydroxybenzylidene)acetohydrazide]: the inhibition at 10 µM came out at 46% in [3]; 35.9% in [4]; 60% in assay [5]; 66% in assay [7]; 29% in [8]; 30% in assay [10]. The inhibition at 10 µM in [11] came to 44.5%; in assay [13] it was 31.7%; in assay [14] it was 39.3%.

As to `COc1ccc(-c2nc3cc(Cl)c(Cl)cc3n2CC(=O)NN=Cc2ccc(O)cc2)cc1` [Compound 10b, 2-(5,6-Dichloro-2-(4-methoxyphenyl)-1H-benzo[d]imidazol-1-yl)-N'-(4-hydroxybenzylidene)acetohydrazide], the inhibition at 10 µM in assay [3] is 9.38%; in assay [4], 21.4%; in assay [5] it was 52.3%; in assay [7] it was 47.5%; in assay [8], 42.6%; in assay [10], 21.8%. Further, the inhibition at 10 µM in assay [11] came out at 28.5%; in [13], 18.6%; in [14] it was 42.8%.

Regarding `COc1ccc(-c2nc3cc(Cl)c(Cl)cc3n2CC(=O)NN=Cc2cccc(OC)c2)cc1` [Compound 10c, 2-(5,6-Dichloro-2-(4-methoxyphenyl)-1H-benzo[d]imidazol-1-yl)-N'-(3-methoxybenzylidene)acetohydrazide], the inhibition at 10 µM in assay [3] was found to be 8.17%; in assay [4], 7.72%; in [5] it was 44.2%; in [7], 46.5%; in [8], 30.3%; in [10], 15.1%. For the same molecule, the inhibition at 10 µM in assay [11] turned out to be 21.3%; in [13], 10.2%; in assay [14], 26.6%.

In the case of `COc1ccc(C=NNC(=O)Cn2c(-c3ccc(OC)cc3)nc3cc(Cl)c(Cl)cc32)cc1` [Compound 10d, 2-(5,6-Dichloro-2-(4-methoxyphenyl)-1H-benzo[d]imidazol-1-yl)-N'-(4-methoxybenzylidene)acetohydrazide], the inhibition at 10 µM in assay [3] is 42.7%; in assay [4] it was 34.9%; in [5], 62.9%; in [7], 58.7%; in assay [8], 24.7%; in assay [10] it was 27.9%. The results for the inhibition at 10 µM in [11], in [13] and in assay [14] were 36%, 32.3% and 38.6%, respectively.

`COc1ccc(-c2nc3cc(Cl)c(Cl)cc3n2CC(=O)NN=Cc2cccc(OCC(=O)O)c2)cc1` [Compound 10e, 2-(3-((2-(2-(5,6-Dichloro-2-(4-methoxyphenyl)-1H-benzo[d]imidazol-1-yl)acetyl)hydrazono)methyl)phenoxy)acetic acid]: the GI% entry is “– (GI% < 5%)” in assay [1]; 10.58% in assay [2]; “– (GI% < 5%)” in assay [6]; “– (GI% < 5%)” in [9]; “– (GI% < 5%)” in assay [12]. Also, the inhibition at 10 µM in [3], in assay [4], in assay [5], in [7], in assay [8] and in assay [10] was < 5% in each case. Further, the inhibition at 10 µM in [11], in assay [13] and in assay [14] was < 5% in each case.

For the molecule `COc1ccc(-c2nc3cc(Cl)c(Cl)cc3n2CC(=O)NN=Cc2ccc(OCC(=O)O)cc2)cc1` [Compound 10f, 2-(4-((2-(2-(5,6-Dichloro-2-(4-methoxyphenyl)-1H-benzo[d]imidazol-1-yl)acetyl)hydrazono)methyl)phenoxy)acetic acid], the inhibition at 10 µM in [3] is < 5%; in [4], < 5%; in assay [5], 6.73%; in [7], < 5%; in assay [8], 8.41%; in [10] it was < 5%. Further, the inhibition at 10 µM in assay [11], in [13] and in assay [14] was < 5% throughout.

For `COC(=O)COc1cccc(C=NNC(=O)Cn2c(-c3ccc(OC)cc3)nc3cc(Cl)c(Cl)cc32)c1` [Compound 10g, Methyl-2-(3-((2-(2-(5,6-dichloro-2-(4-methoxyphenyl)-1H-benzo[d]imidazol-1-yl)acetyl)hydrazono)methyl)phenoxy)acetate], the inhibition at 10 µM in [3] was < 5%; in assay [4], 44%; in [5], 21.4%; in assay [7], 21.3%; in assay [8], 19.1%; in assay [10], 9.11%. The inhibition at 10 µM in assay [11], in assay [13] and in [14] was < 5% each time.

Take `COc1ccc(-c2nc3cc(Cl)c(Cl)cc3n2CC(=O)NN=Cc2ccc(O)c(OC)c2)cc1` [Compound 10l, 2-(5,6-Dichloro-2-(4-methoxyphenyl)-1H-benzo[d]imidazol-1-yl)-N'-(4-hydroxy-3-methoxybenzylidene)acetohydrazide]: the inhibition at 10 µM in assay [3] was < 5%; in [4] it was 18.2%; in assay [5], 51.5%; in assay [7], 58.1%; in assay [8] it was 38.5%; in [10], 23.5%. The inhibition at 10 µM in assay [11] came out at 38.4%; in assay [13] it was 9.29%; in assay [14] it was 25.8%.
